Experiments:
PDGF-R = PDGF-R Assay (cellular ELISA, U1242 cells); format: cell-based; set-up: concentration or dose not given beside the values; settings: protocol P.119
Outline: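 U1242 cells seeded in 0.5% serum, serum-starved, then exposed to compound for 2 hr at 37°C before 5–10 min ligand stimulation and lysis in HNTG. Lysate captured on receptor-antibody-coated plates; phosphotyrosine detected with polyclonal anti-pTyr, goat anti-rabbit IgG and ABTS/H2O2, A410 (ref 630 nm), versus untreated cells.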

EGFR = target: T1, EGFR (Homo sapiens, UniProt P00533); experiment: Biochemical EGFR Assay; set-up: concentration or dose not given beside the values; settings: protocol P.167
T1 construct: endogenous in cells; host or cells: A431 cells (lysate, captured with SUMO1 anti-EGFR antibody)
T1 sequence (P00533 25-1210): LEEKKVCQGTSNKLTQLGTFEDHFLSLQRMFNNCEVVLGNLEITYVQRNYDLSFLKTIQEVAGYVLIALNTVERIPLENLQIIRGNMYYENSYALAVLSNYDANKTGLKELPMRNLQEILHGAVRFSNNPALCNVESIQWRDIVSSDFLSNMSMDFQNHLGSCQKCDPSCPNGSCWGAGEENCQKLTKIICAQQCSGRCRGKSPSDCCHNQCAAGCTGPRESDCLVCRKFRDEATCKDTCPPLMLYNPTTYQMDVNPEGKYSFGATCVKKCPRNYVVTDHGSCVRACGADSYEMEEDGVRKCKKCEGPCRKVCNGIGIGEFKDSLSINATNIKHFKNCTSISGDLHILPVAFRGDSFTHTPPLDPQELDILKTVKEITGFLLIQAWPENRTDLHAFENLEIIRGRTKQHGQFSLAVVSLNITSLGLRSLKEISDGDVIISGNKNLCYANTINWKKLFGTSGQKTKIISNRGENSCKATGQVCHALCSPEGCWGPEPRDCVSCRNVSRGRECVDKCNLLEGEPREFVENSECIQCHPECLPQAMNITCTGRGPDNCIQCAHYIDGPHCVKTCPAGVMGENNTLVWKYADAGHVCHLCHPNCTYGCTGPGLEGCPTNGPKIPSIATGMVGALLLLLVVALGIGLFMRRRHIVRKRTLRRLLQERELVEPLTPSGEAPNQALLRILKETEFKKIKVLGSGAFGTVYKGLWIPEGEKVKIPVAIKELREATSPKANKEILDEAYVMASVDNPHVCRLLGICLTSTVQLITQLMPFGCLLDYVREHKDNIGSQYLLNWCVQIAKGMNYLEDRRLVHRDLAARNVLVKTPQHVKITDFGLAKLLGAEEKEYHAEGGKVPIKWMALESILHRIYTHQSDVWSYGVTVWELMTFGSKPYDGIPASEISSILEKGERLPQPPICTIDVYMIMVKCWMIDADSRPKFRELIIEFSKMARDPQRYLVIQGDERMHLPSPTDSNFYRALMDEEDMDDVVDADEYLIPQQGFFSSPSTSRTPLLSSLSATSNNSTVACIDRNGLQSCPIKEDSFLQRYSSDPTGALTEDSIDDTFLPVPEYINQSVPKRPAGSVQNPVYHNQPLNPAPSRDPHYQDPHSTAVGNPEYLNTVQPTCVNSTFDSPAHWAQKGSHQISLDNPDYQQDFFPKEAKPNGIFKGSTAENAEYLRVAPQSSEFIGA
Outline: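 EGFR from A431 lysate was captured on anti-EGFR-coated wells and preincubated 30 min with compound (diluted 1:10 in TBS) at room temperature. After ATP/MnCl2 phosphorylation for 5 min, the reaction was stopped with EDTA. Phosphotyrosine was detected by ELISA (anti-phosphotyrosine, peroxidase conjugate, ABTS) at 410 nm.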

SMILES	PDGF Kinase % Inhibition (P.119) (PDGF-R) [%]	Biochem EGFR % Inhibition (P.167) (EGFR) [%]
Cc1ccc(C)c(C=C2C(=O)Nc3c(Br)cc(Br)c(C)c32)c1 [10737/H07]	−17.7	17.2
Cc1c(Br)cc(Br)c2c1C(=Cc1ccc3ccccc3c1)C(=O)N2 [10737/H08]	−26.9	−36.6
Cc1c(Br)cc(Br)c2c1C(=Cc1ccc(Oc3ccccc3)cc1)C(=O)N2 [10737/H09]	−11.7	−15.9
Cc1c(Br)cc(Br)c2c1C(=Cc1cccc(Oc3ccc(C(C)(C)C)cc3)c1)C(=O)N2 [10737/H10]	−12.9	0.3
Cc1c(Br)cc(Br)c2c1C(=Cc1cccc(Oc3cccc(C(F)(F)F)c3)c1)C(=O)N2 [10737/H11]	−16.5	4.5

From patent US20020026053A1, “Novel 3-(substituted) -2- indolinones compounds and use thereof as inhibitors of protein kinase activity” (priority 1997, published 2002)
